The text below walks through data of patent publication US6653344B2, “Pharmaceutical preparations containing a dibenzocyclooctane lignan derivative for treatment of neurodegenerative disease” (Elcom Bio Technology Co., Ltd., priority 2000, dated 2003).

Entries after “also recorded” stand apart in the source; their conditions may differ.

Type in all cases: cell-based
Assay [1] relates to glutamate-damaged primary cultured rat cortical cells. Description: Neuroprotection against glutamate-induced neurotoxicity, cell viability by MTT assay. On the set-up: Viability (%) Pre-treatment / Viability (%) Post-treatment: unit of the concentration uncertain. The settings on record: for Viability: 1 hr before 100 M glutamate, then 24 hr, control 100, glutamate-treated 0; for Viability (%) Pre-treatment: compound 1 µM for 1 hr before 100 µM glutamate (15 min), then 24 hr in DMEM in the absence of compound; for Viability (%) Post-treatment: glutamate 15 min, washed, 24 hr in the presence of compound 1 µM; for neuroprotective activity, post-treatment (in words): post-treatment with lignan after glutamate; for neuroprotective activity, pre-treatment (in words): pre-treatment with lignan before glutamate; for neuroprotective activity against glutamate-induced neurotoxicity (in words): primary cultures of rat cortical cells, L-glutamate. The protocol:
(§1) Primary cultures of mixed cortical cells containing both neuron and glia were prepared from fetal rats as described previously (Kim Y C, Kim S R, Markelonis G J and Oh T H (1998) Ginsenosides Rb1 and Rg3 protect cultured rat cortical cells from glutamate-induced neurodegeneration. J. Neurosci. Res. 53: 426-432).
(§2) The cortical cells were plated onto collagen-coated dishes at a density of 1×10^6 cells/ml. The cultured cells were grown in DMEM supplemented with 10% heat-inactivated fetal calf serum, 1 mM sodium pyruvate, 100 IU/ml pecicillin and 100 μg/ml streptomycin at 37° C. in a humidified atmosphere of 95% air/5% CO2. cultures were allowed to mature for 2 weeks before being used for experiments.
The lignan compounds to be investigated for having neuroprotective activity or not were dissolved in DMSO(within final culture concentration, 0.1%) and diluted with distilled water and by passing the solution through Milliporemembrane (0.22 μm, Millex-GV, USA) to make sterile state. The solution was cultured, by differentiating the concentration and dosed to neuron cells.
Cortical cells directly isolated from […] fetal were cultured for 14 days. The samples to be tested were treated at different concentrations to cultured cells. After one hour, neurotoxicity was induced by treating 100 μM of glutamate. After 24 hours, the survival cell rate were measured by MTT assay to determine neuroprotective activity of the samples.
(§3) To culture broth of the cortical cells during being cultured, MTT(5 mg/ml) was added by 10% of the culture broth. The broth was cultured for more 3 hours. The formed formazan was dissolved by DMSO and was assayed absorption at 540 nm ((Mosmann T (1983) Rapid colorimetric assay for cellular growth and survival: Application to proliferation and cytotoxicity assays. J. Immuno. Methods 65: 55-61)
Deoxychizandrin, gomisin N, schizandrin and wuweizisu C, the important dibenzocyclooctane lignans of Schizandra fruit were evaluated by assessing the viability of cultured cortical neurons after treatment with the neurotoxicant, glutamate. […] After cortical cells were cultured for 14 days, test compounds were dosed at different concentrations and after 1 hour neurotoxicity was induced by 100 μM glutamate. After culturing for 24 hours, the neuroprotective activity was measured. The neuroprotective activity of the compounds were measured by MTT assay for assaying the activity of succinate dehydrogenase. […] And the content of formazan is decreased, too. By using this phenomena, cell survival rate can be measured.
We investigated the protective mechanisms of deoxyschizandrin, gomisin N and wuweizisu C in an attempt to determine at which stage these lignans protected neurons from glutamate-induced toxicity. Cultures were pretreated with the lignans for […] exposure to glutamate(pre-treatment). In addition, some cultures were exposed to glutamate in DMEM for 24 hours in the […] of lignans (post-treatment).
Rat Cortical cultures were treated with compounds for 1 hr before exposure to 100 M glutamate and then maintained for 24 hr. Cell viability was measured by the MTT assay. Optical density (OD) of the control and glutamate-treated were 1.18±0.09 and 0.75±0.07, respectively. Viability was calculated as 100×(OD of glutamate+compound-treated−OD of glutamate-treated)/(OD of control−OD of glutamate-treated). Values given represent the mean SD (n=3).
Rat cortical cultures were treated with compounds at the concentration of 1 M for 1 hr before exposure to 100 M glutamate (15 min) and then maintained in DMEM for 24 hr in the absence of compound (Pre-treatment). Some cortical cultures were exposed to glutamate for 15 min, washed and maintained in DMEN for 24 hr in the presence of compund (Posttreatment). Cell viability was measured by the MTT assay. Optical density (OD) of the control and glutamate-treated were 1.18±0.09 and 0.75±0.07, respectively. Viability was calculated as the same as Table 1. Values given represent the mean SD (n=3). […]
(Formazan colour is commonly taken as a measure of viable cells.)

The test system of assay [2] is KA-insulted primary cultured rat cortical cells. Description: Neuroprotection against KA-induced toxicity, cell viability by MTT assay. As to conditions: for Viability (%) KA-insulted: compound 1 µM for 1 hr, then 50 µM KA, 24 hr. The protocol: as §1, §2, §3
Glutamate receiptor is divided into NMDA receiptor which is activated by NMDA and non-NMDA receiptor which is activated by alpha-amino-3-hydroxy-5-methyl-4-isoxazole and kainic acid (KA). To first cultured cortical cells, the above compounds were each treated. The neuro-protective activities of the compounds were measured, after toxicities were induced by NMDA, the NMDA receiptor agonist, or KA, the non-NMDA receiptor agonist.
Rat cortical cultures were treated with compounds at the concentration of 1 M for 1 hr. The cultures were then exposed to 50 µM NMDA or 50 µM KA and were maintained for an additional 24 hr. […]. Cell viability was measured by the MTT assay. Optical density of control, NMDA- and KA treated were 1.20±0.10, 0.77±0.05 and 0.85±0.08, respectively. Viability was calculated as the same as Table 1. Values given represent the mean SD (n=3).

Assay [3] relates to MDA content in glutamate-injured primary cultured rat cortical cells. Description: Measurement of malondialdehyde (MDA) content, lipid peroxidation. As to conditions: for Protection (MDA content, lipid-peroxidation) / MDA: compound 1 µM for 1 hr before 100 µM glutamate, 24 hr; for MDA: control 70.2, glutamate-treated 198.2. The protocol: Cells were collected by adding 0.1M potassium phosphate buffer (pH 7.4) to culture-broth-removed remainings from first cultured cortical cells. The collected cells were treated by supersonic wave for 20 seconds and were centrifuged at 4° C. with 3,000 g for 20 minutes to obtain the supernatant.
To 500 μl of cell supernatant, 500 μl of 10% trichroroacetic acid(TCA) was added and leaved for 10 minutes. The precipitated protain was removed by using centrifuge. To the supernatant, final concentration of 0.2% of thiobarbituric acid is added to prepare 1 ml of solution and reacted at 100° C. for 1 hour. Adsorption was measured at 535 nm and converted and obtained by comparing the contents of MDA with 1,1,3,3-tetraethoxypropane as standard. (Yagi K A, 1976, Simple fluorometric assay for lipoperoxide in blood plasma, Biochem Med 15: 212-216).
NO which is over-formed by glutamate and superoxide anion are each combined to form peroxynitrite. (Almeida et al. 1998). Such formed peroxynitrite with free radical which is formed by glutamate toxicity induce oxidative stress on neurons and induce lipid-peroxidation of cells. Wuweizusu C suppressed 67% of lipid-peroxidation induced by glutamate.
Rat cortical cultures were treated with compounds at the concentration of 1 M for 1 hr before exposure to 100 M glutamate and then maintained for 24 hr. Values given represent the mean SD (n=3).

Turning to `COc1cc2c(c(OC)c1OC)-c1c(cc(OC)c(OC)c1OC)C[C@H](C)[C@H](C)C2` [Deoxyschizandrin, deoxyschizandrin], the Viability in assay [1] (compound 0.1 μM) amounted to 11.6 ± 5.1%. In assay [1], the “Viability (%) Pre-treatment” value amounted to 20.1 ± 3.1%; the “Viability (%) Post-treatment” value turned out to be 45.9 ± 5.5 %; the “neuroprotective activity, post-treatment (in words)” value was “significant neuroprotective activity”; the “neuroprotective activity, pre-treatment (in words)” value is reported as “not pre-treated”. For the same compound, the “neuroprotective activity against glutamate-induced neurotoxicity (in words)” value in assay [1] is “exhibited neuroprotective activities; also recorded: significantly have protective activity”. Also, the Viability in assay [1] (compound 1.0 μM, 1 µM) was found to be 46.2 ± 6.3 %. For the same compound, in assay [1] (compound 1.0 μM, listed as deoxyschzandrin, 1 µM), the Viability was 46.2%. Further, the Viability in assay [1] (compound 5.0 μM) was 45.6 ± 3.1 %. Besides, in assay [2], the “neuroprotective activity against toxicity induced by KA (in words)” value is “selectively neuroprotective activity” and the “Viability (%) KA-insulted” value amounted to 38.2 ± 4.2 %. For the same compound, in assay [3], the “suppression of lipid-peroxidation induced by glutamate (in words)” value is reported as “significantly suppressed”; the “Protection (MDA content, lipid-peroxidation)” value (from here on “Protection”) was determined as 49.2%; the MDA was 135.4 ± 10.7 nmol/mg protein.
Consider `COc1cc2c(c(OC)c1OC)-c1c(cc3c(c1OC)OCO3)C[C@H](C)[C@H](C)C2` [Gomisin N, gomisin N], for which the Viability in assay [1] (compound 0.1 μM) amounted to 25.2 ± 4.4%. In assay [1], the “Viability (%) Pre-treatment” value is 45.5 ± 9.8 %; the “Viability (%) Post-treatment” value is 39.6 ± 6.2 %; the “neuroprotective activity, post-treatment (in words)” value is given as “maintained its activity”; the “neuroprotective activity, pre-treatment (in words)” value is given as “maintained its activity”. The “neuroprotective activity against glutamate-induced neurotoxicity (in words)” value in assay [1] is recorded as “exhibited neuroprotective activities; also recorded: significantly have protective activity”. Moreover, the Viability in assay [1] (compound 1.0 μM, 1 µM) stood at 51.3 ± 8.3 %. In addition, the Viability in assay [1] (compound 1.0 μM, listed as gomisin N, 1 µM) is recorded as 51.3%. In assay [1] (compound 5.0 μM), the Viability came out at 49.2 ± 9.5 %. The “Viability (%) KA-insulted” value in assay [2] was 25.5 ± 4.5%. Besides, in assay [3], the “suppression of lipid-peroxidation induced by glutamate (in words)” value was “significantly suppressed”; the “Protection” value is 57.0%; the MDA came to 125.6 ± 11.1 nmol/mg protein.
Consider `COc1c2c(cc3c1-c1c(cc4c(c1OC)OCO4)C[C@H](C)[C@H](C)C3)OCO2` [Wuweizisu C, wuweizisu C], for which the Viability in assay [1] (compound 0.1 μM) came out at 30.2 ± 6.3 %. In addition, in assay [1], the “Viability (%) Pre-treatment” value is 59.6 ± 5.1 %; the “Viability (%) Post-treatment” value is 19.2 ± 7.8%; the “neuroprotective activity, post-treatment (in words)” value is recorded as “not post-treatment”; the “neuroprotective activity, pre-treatment (in words)” value was “neuroprotective”. In assay [1], the “neuroprotective activity against glutamate-induced neurotoxicity (in words)” value is “exhibited neuroprotective activities; also recorded: significantly have protective activity”. For the same compound, the Viability in assay [1] (compound 1.0 μM, 1 µM) worked out at 63.9 ± 5.9 %. In addition, the Viability in assay [1] (compound 1.0 μM, listed as wuwiewisu C, 1 µM) is on record as 63.9%. The Viability in assay [1] (compound 5.0 μM) worked out at 60.9 ± 9.6 %. Further, the “Viability (%) KA-insulted” value in assay [2] turned out to be 15.0 ± 3.9%. Moreover, in assay [3], the “Protection” value was 68.7% and the MDA was 110.5 ± 9.0 nmol/mg protein. Besides, in assay [3] (listed as Wuweizusu C), the “Protection” value came to 67%.
